Experimental data from BindingDB's records for patent US9388210 (Washington University, 2016).

Biological target: Gamma-aminobutyric acid receptor subunit alpha-1/beta-2/gamma-2 (Rattus norvegicus, UniProt P18508+P62813+P63138)
Test: [35S]TBPS Binding Assay
Conditions: pH 7.4; 25 °C
Experimental: Briefly, aliquots of membrane solution (0.5 mg/mL final protein concentration in assay) were incubated with 5 μM GABA, 2 nM [35S]TBPS (45−120 Ci/mmol), and 5 μL aliquots of steroid in DMSO solution (final assay concentrations ranged from 1 nM to 10 μM), and brought to a final volume of 1 mL with 200 mM NaCl, 50 mM potassium phosphate buffer, pH 7.4. […] Assay tubes were incubated for 2 h at room temperature.

Sequence of Gamma-aminobutyric acid receptor subunit alpha-1/beta-2/gamma-2 (P62813 whole entry): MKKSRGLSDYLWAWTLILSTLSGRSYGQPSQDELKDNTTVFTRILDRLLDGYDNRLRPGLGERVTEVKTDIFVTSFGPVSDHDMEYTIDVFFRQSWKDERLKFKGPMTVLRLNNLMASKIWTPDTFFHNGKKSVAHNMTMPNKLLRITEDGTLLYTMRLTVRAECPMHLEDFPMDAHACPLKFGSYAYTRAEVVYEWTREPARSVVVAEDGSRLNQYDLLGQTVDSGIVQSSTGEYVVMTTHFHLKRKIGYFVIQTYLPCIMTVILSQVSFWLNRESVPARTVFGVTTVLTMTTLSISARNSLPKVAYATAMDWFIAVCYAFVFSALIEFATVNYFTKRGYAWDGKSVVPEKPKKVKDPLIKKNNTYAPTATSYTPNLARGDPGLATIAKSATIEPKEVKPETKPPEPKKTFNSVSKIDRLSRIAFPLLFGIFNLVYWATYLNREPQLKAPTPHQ
Sequence of Gamma-aminobutyric acid receptor subunit alpha-1/beta-2/gamma-2 (P63138 whole entry): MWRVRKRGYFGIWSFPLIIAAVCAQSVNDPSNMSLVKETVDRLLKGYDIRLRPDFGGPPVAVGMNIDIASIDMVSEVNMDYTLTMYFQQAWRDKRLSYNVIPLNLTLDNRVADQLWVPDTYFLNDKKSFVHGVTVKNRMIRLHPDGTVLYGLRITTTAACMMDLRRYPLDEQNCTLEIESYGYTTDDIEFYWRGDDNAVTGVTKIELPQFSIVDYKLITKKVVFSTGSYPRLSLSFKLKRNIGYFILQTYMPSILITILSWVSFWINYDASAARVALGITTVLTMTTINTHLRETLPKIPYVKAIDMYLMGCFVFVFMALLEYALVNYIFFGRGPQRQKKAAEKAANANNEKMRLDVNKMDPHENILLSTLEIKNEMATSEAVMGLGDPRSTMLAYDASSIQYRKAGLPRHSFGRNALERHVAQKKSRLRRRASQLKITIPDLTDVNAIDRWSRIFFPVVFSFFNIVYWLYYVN
Sequence of Gamma-aminobutyric acid receptor subunit alpha-1/beta-2/gamma-2 (P18508 whole entry): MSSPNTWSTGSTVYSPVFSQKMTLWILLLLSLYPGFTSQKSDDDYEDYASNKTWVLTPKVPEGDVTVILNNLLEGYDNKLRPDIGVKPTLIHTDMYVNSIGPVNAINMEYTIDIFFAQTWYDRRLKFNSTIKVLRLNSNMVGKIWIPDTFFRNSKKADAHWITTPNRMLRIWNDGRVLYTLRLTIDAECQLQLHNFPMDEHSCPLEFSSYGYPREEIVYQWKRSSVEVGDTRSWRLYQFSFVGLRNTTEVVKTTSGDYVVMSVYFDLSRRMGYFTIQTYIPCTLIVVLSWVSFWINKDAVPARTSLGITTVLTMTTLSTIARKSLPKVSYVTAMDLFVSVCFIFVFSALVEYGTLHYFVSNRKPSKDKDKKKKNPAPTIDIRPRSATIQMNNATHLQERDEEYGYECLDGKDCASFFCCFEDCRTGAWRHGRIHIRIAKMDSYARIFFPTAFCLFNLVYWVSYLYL

Structure (SMILES)	IC50
C[C@]12CC[C@@H](O)C[C@@H]1CC[C@@H]1[C@@H]2C(=O)C[C@]2(C)C(C=O)=CC[C@@H]12 [US9388210, 5a]	997 nM
C[C@]12CC[C@@H](O)C[C@@H]1CC[C@H]1[C@@H]3CC[C@H](C=O)[C@@]3(C)CC(=O)[C@@H]12 [US9388210, 5b]	770 nM
